{"source": "ChEMBL document CHEMBL3994651", "about": "“Physapubescin, a natural withanolide as a kidney-type glutaminase (KGA) inhibitor” (Bioorg Med Chem Lett, 2017)", "key": {"[1]": {"test_system": "HCC827", "experiment": "Cytotoxicity against human erlotinib-resistant HCC827 cells assessed as growth inhibition after 48 hrs by CCK8 assay", "type": "functional, cell-based", "conditions": "HCC827, 48 h"}, "[2]": {"test_system": "HT-1080", "experiment": "Cytotoxicity against human HT1080 cells assessed as growth inhibition after 48 hrs by CCK8 assay", "type": "functional, cell-based", "conditions": "HT-1080, 48 h"}, "[3]": {"target": "T1, Glutaminase kidney isoform, mitochondrial (Homo sapiens, UniProt O94925)", "T1 sequence (O94925 whole entry)": "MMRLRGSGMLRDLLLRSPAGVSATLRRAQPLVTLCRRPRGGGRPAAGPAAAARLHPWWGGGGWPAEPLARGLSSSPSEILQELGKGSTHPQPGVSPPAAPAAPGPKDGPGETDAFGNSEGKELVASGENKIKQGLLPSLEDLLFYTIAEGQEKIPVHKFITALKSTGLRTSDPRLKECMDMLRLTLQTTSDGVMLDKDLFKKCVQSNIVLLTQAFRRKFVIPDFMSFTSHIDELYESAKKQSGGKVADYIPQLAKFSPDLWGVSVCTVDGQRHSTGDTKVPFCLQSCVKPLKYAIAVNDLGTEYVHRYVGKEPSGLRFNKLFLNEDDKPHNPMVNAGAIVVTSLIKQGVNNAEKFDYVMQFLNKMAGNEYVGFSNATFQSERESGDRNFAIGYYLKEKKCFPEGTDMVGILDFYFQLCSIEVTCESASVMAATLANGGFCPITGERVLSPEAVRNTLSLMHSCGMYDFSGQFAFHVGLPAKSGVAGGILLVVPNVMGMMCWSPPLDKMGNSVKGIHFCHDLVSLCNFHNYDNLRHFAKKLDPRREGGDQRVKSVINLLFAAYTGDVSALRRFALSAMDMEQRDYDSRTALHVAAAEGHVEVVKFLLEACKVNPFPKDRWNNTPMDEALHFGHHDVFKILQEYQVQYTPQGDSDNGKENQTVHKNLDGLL", "experiment": "Inhibition of recombinant KGA (unknown origin) using glutamine as substrate"}, "[4]": {"target": "T2, Glutaminase kidney isoform, mitochondrial (Homo sapiens) (UniProt O94925)", "T2 sequence (whole entry)": "T1 sequence (O94925 whole entry)", "experiment": "Competitive inhibition of recombinant KGA (unknown origin) at 40 uM using varying levels of glutamine substrate measured within 1 to 4 mins"}, "[5]": {"target": "T1, Glutaminase kidney isoform, mitochondrial", "experiment": "Binding affinity to NT-647-NHS-labelled KGA (unknown origin) after 10 mins by microscale thermophoresis method"}, "[6]": {"test_system": "L02", "experiment": "Cytotoxicity against human LO2 cells assessed as growth inhibition after 48 hrs by CCK8 assay", "type": "cell-based", "conditions": "L02, 48 h"}, "[7]": {"test_system": "L929", "experiment": "Cytotoxicity against mouse L929 cells assessed as growth inhibition after 48 hrs by CCK8 assay", "type": "cell-based", "conditions": "L929, 48 h"}, "[8]": {"test_system": "Vero", "experiment": "Cytotoxicity against monkey Vero cells assessed as growth inhibition after 48 hrs by CCK8 assay", "type": "cell-based", "conditions": "Chlorocebus sabaeus"}}, "note": "Activity calls are given as the source filed them. The rule behind the calls is not given here."}
{"smiles": "O=C(Cc1ccccc1)Nc1nnc(CCSCCc2nnc(NC(=O)Cc3ccccc3)s2)s1", "values": [{"measurement": "IC50", "setting": "[1]", "value": 42.4, "unit": "µM"}, {"measurement": "IC50", "setting": "[2]", "value": 47.7, "unit": "µM"}]}
{"smiles": "O=C(Cc1cccc(OC(F)(F)F)c1)Nc1ccc(CCCCc2nnc(NC(=O)Cc3ccccn3)s2)nn1", "values": [{"measurement": "IC50", "setting": "[1]", "value": 51.4, "unit": "µM"}, {"measurement": "IC50", "setting": "[2]", "value": 44.4, "unit": "µM"}]}
{"smiles": "CO[C@@H]1O[C@@H]([C@@H](C)[C@H]2CC[C@H]3[C@@H]4CC=C5C[C@@H](O[C@@H]6O[C@H](CO[C@@H]7O[C@H](CO)[C@@H](O)[C@H](O)[C@H]7O)[C@@H](O)[C@H](O)[C@H]6O)C[C@H](O)[C@]5(C)[C@H]4CC[C@]23C)C[C@](C)(OC)[C@]1(C)O", "values": [{"measurement": "IC50", "setting": "[3]", "value": "> 100", "unit": "µM"}, {"measurement": "IC50", "setting": "[1]", "value": "> 200", "unit": "µM"}, {"measurement": "IC50", "setting": "[2]", "value": "> 200", "unit": "µM"}]}
{"smiles": "C[C@@H]([C@H]1CC[C@H]2[C@@H]3CC=C4C[C@@H](O[C@@H]5O[C@H](CO[C@@H]6O[C@H](CO)[C@@H](O)[C@H](O)[C@H]6O)[C@@H](O)[C@H](O)[C@H]5O)C[C@H](O)[C@]4(C)[C@H]3CC[C@]12C)[C@H]1C[C@@](C)(O)[C@](C)(O)C(O)O1", "note": "(some centres not stated)", "values": [{"measurement": "IC50", "setting": "[3]", "value": "> 100", "unit": "µM"}, {"measurement": "IC50", "setting": "[1]", "value": "> 200", "unit": "µM"}, {"measurement": "IC50", "setting": "[2]", "value": "> 200", "unit": "µM"}]}
{"smiles": "CC(=O)O[C@H]1C[C@H]([C@H](C)[C@H]2C[C@]3(C)O[C@]3(C)[C@H](O)O2)[C@@]2(C)CC[C@H]3[C@@H](C[C@@H]4O[C@]45[C@@H](O)C=CC(=O)[C@]35C)[C@H]12", "values": [{"measurement": "IC50", "setting": "[3]", "value": 9.89, "unit": "µM"}, {"measurement": "inhibition", "setting": "[4]", "value": "Active"}, {"measurement": "Kd", "setting": "[5]", "value": 4.95, "unit": "µM"}, {"measurement": "IC50", "setting": "[1]", "value": 2.76, "unit": "µM"}, {"measurement": "IC50", "setting": "[2]", "value": 6.99, "unit": "µM"}, {"measurement": "IC50", "setting": "[6]", "value": 10.4, "unit": "µM"}, {"measurement": "IC50", "setting": "[7]", "value": 10.4, "unit": "µM"}, {"measurement": "IC50", "setting": "[8]", "value": 12.4, "unit": "µM"}]}
{"smiles": "C[C@@H]([C@H]1CC[C@H]2[C@@H]3CC=C4C[C@@H](O[C@@H]5O[C@H](CO[C@@H]6O[C@H](CO)[C@@H](O)[C@H](O)[C@H]6O)[C@@H](O)[C@H](O)[C@H]5O)C[C@H](O)[C@]4(C)[C@H]3CC[C@]12C)[C@H]1C[C@](C)(O)[C@](C)(O)C(=O)O1", "values": [{"measurement": "IC50", "setting": "[3]", "value": "> 100", "unit": "µM"}, {"measurement": "IC50", "setting": "[1]", "value": "> 200", "unit": "µM"}, {"measurement": "IC50", "setting": "[2]", "value": "> 200", "unit": "µM"}]}
{"smiles": "C[C@@H]([C@H]1CC[C@H]2[C@@H]3CC=C4C[C@@H](O)C[C@H](O)[C@]4(C)[C@H]3CC[C@]12C)[C@H]1C[C@](C)(O)[C@](C)(O)C(=O)O1", "values": [{"measurement": "IC50", "setting": "[3]", "value": "> 100", "unit": "µM"}, {"measurement": "IC50", "setting": "[1]", "value": "> 200", "unit": "µM"}, {"measurement": "IC50", "setting": "[2]", "value": "> 200", "unit": "µM"}]}
{"smiles": "C[C@@H]([C@H]1CC[C@H]2[C@@H]3CC=C4C[C@@H](O)C[C@H](O)[C@]4(C)[C@H]3CC[C@]12C)[C@H]1C[C@@](C)(O)[C@](C)(O)C(O)O1", "note": "(some centres not stated)", "values": [{"measurement": "IC50", "setting": "[3]", "value": "> 100", "unit": "µM"}, {"measurement": "IC50", "setting": "[1]", "value": "> 200", "unit": "µM"}, {"measurement": "IC50", "setting": "[2]", "value": "> 200", "unit": "µM"}]}
